{"source": "patent US4632922A", "about": "“Oxomorpholinyl dimer and rescue of anthracycline and mitomycin C damage” (The United States of America as represented by the …, priority 1985, dated 1986)", "key": {"[1]": {"experiment": "Kinetic measurements of TM3 reactivity with anthracycline compounds in methanol solvent", "settings": "reaction with TM3, 25° C.", "procedure": "Kinetic measurements of TM3 reactivity\nwith anthracycline compounds at 25° C. in methanol solvent."}, "swine skin": {"test_system": "swine skin", "experiment": "Skin lesions after intradermal DOX in swine", "type": "in vivo, miniature white swine", "procedure": "In order to produce anthracycline induced tissue damage, clinical grade doxorubicin (DOX) hydrochloride was obtained as a representative anthracycline chemical from the Drug Synthesis Branch, Developmental Therapeutics Program, National Cancer Institute. Each vial contained 10 mg DOX hydrochloride and 50 mg lactose which was reconstituted with 5.0 ml sterile 0.9% NaCl solution to give a final drug concentration of 2.0 mg/ml. DHM3 solution was prepared by dissolving 10 mg in ice-cold water which had been purged with N2 gas for 5 minutes. Dissolution was facilitated by brief sonication to give a final concentration of 10 mg/ml. The solution was kept cold (≈4° C.) and protected from air and light.\nFemale weanling miniature white swine weighing approximately 12 kg were obtained from the Veterinary Resources Branch, National Institutes of Health. The development of this strain of swine has been described previously (Sachs, et al., Transplantation 22:559-567, 1976). Each animal was housed in a 6×4 ft metabolic cage and was fed standard NIH show chow, 1.5 lbs twice daily.\nDOX HCl (2.0 mg/ml) was administered intradermally (i.d.) with a 25 gauge needle inserted approximately 4 to 5 mm into the skin. Following the injection of 0.5, 0.75 or 1.0 ml (1.0, 1.5, or 2.0 mg, respectively) DOX solution, the syringe was removed from the hub leaving the needle in place. After the indicated time interval, 1.0 ml (10 mg) DHM3 was injected through the same needle and the needle was then removed. Control sites received 1.0 ml sterile water instead of DHM3. The injection sites were along the mid-lateral aspect of each side of the swine and were 4-5 cm apart (6-8 injection sites per side). One animal was used for a dose experiment where DOX, 0.5 ml/site was injected along one side and 1.0 ml/site was injected along the contralateral side. Fifteen minutes later, DHM3 or water was injected into alternating sites as described above. A second animal received DOX, 0.75 ml/site along both sides. DHM3 or water was injected into alternating sites at times varying from 5 to 120 minutes following DOX administration.\nAll lesions were measured by a single observer with metric calipers three times weekly for two weeks, followed by weekly measurements thereafter. The areas of skin ulceration and induration were estimated by the product of the cross perpendicular diameters. The total toxicity of DOX-induced skin ulceration was determined by calculating the area under the ulceration-time curve (AUC) in mm^2 -days.\nIn order to assess the extent of tissue injury following intradermal DOX or DHM3, incisional biopsies were performed on representative lesions 6 and 20 days following drug injection. These samples were placed in 10% buffered formalin and processed for examination by standard light microscopy (Pathco Inc., Potomac, MD.)."}, "DOX-induced injury": {"test_system": "DOX-induced injury", "settings": "cited from earlier work; for reduction of size of ulceration: animal models"}, "[2]": {"experiment": "Solubility of 7-deoxydaunorubicinone in the aqueous reaction medium", "type": "physicochemical", "settings": "water, pH8"}, "[3]": {"experiment": "Kinetics of reaction of DHM3 with daunorubicin in water solvent", "settings": "over the first 85 sec, water, 10° C., ten-fold excess DHM3", "procedure": "A test similar to that described for the same reaction in methanol solvent (vide supra) was run. Oxomorpholinyl dimer DHM3 (1.38 mg, 4.37×10^-3 mmol) was dissolved in 0.5 ml of oxygen-free methanol and quickly transferred without delay into one compartment of the cell. The solvent was promptly removed under vacuum. Daunorubicin hydrochloride ([…]) was dissolved in 100 ml of an aqueous solution of Tris (24.2 mg) and Tris hydrochloride (31.6 mg) and 2.6 ml of this solution (4.18×10^-4 mmol of 6) was introduced into the other compartment of the cell. The sample was freeze-thaw degassed over three cycles as described above, sealed, and placed in a thermostatted cell holder at 10.0±0.1° C. for about 20 min prior to mixing. Full spectra between 320 and 800 nm were recorded every 10 sec for the first 125 sec, and then every 20 sec. From the absorbance change at 620 nm over the first 85 sec (50% reaction of daunorubicin), a non-linear least-squares treatment gave a first order rate constant for bond homolysis of DHM3 (k1) equal to 6×10^-4 sec^-1 and a first order rate constant for destruction of 7 (k2) equal to 2×10^-2 sec^-1. Treatment of the data obtained in the 164-225 sec interval gave k2 =2.8×10^-2 sec^-1.\nThus, when a ten-fold excess of DHM3 is reacted with an oxygen-free 2×10^-4 M solution of 6 in buffered water (pH8) at 10° C., the absorbance of the solution at 618-620 nm, due to the tautomer 7, reaches its maximum after 125 sec and then decreases quickly, with an 80% decrease in 100 sec. Here again the formation and destruction of 7, as calculated from the data obtained in the first 85 sec of reaction, follows consecutive first order kinetics, first order in DHM3 and 7, with k1 =6×10^-4 sec^-1, k2 =2×10^-2 sec^-1 and ε7 =9600. Calculation of k2 from the absorbance data taken after 165 sec of reaction time, when only first order destruction of 7 is observed, gives a value of 2.8×10^-2 sec^-1."}}, "data": [{"smiles": "CC(=O)C1(O)Cc2c(O)c3c(c(O)c2C(OC2CC(N)C(O)C(C)O2)C1)C(=O)c1ccccc1C3=O", "note": "(stereo not shown) [4-DEMETHOXYDAUNORUBICIN, 4-demethoxydaunorubicin]", "values": [{"measurement": "RATE CONSTANT k2", "setting": "[1]", "value": 0.009, "unit": "s⁻¹"}]}, {"smiles": "CC[C@@]1(O)C[C@H](O[C@H]2C[C@H](N(C)C)[C@H](O[C@H]3C[C@H](O)[C@H](O[C@H]4CCC(=O)[C@H](C)O4)[C@H](C)O3)[C@H](C)O2)c2c(cc3c(c2O)C(=O)c2c(O)cccc2C3=O)[C@H]1C(=O)OC", "note": "[ACLARUBICIN]", "values": [{"measurement": "RATE CONSTANT k2", "setting": "[1]", "value": 0.0009, "unit": "s⁻¹"}]}, {"smiles": "COc1cccc2c1C(=O)c1c(O)c3c(c(O)c1C2=O)C[C@@](O)(C(=O)CO)C[C@@H]3O[C@H]1C[C@H](N)[C@H](O)[C@H](C)O1", "note": "[DOX, doxorubicin]", "values": [{"measurement": "dose dependence of skin ulceration size", "setting": "swine skin; DOX 0.5 to 1.0 ml (2.0 mg/ml) i.d.", "value": "linearly dependent on the dose"}, {"measurement": "start of ulcer formation following DOX", "setting": "swine skin; DOX i.d.", "value": "7 to 8", "unit": "days"}, {"measurement": "time to complete healing of ulcer", "setting": "swine skin; DOX i.d.", "value": "≤ 7", "unit": "weeks"}, {"measurement": "time to maximal ulcer size following DOX", "setting": "swine skin; DOX i.d.", "value": 3, "unit": "weeks"}, {"measurement": "microscopic appearance of lesions", "setting": "swine skin; DOX i.d., biopsy", "value": "extensive coagulation-type necrosis of epidermis, dermis, and subcutaneous tissue, including muscle"}, {"measurement": "ulcer following DOX, compared with present results", "setting": "DOX-induced injury; 2 mg/site i.d., swine, Okano et al. 1983", "value": "smaller and more variable ulcer"}, {"measurement": "RATE CONSTANT k2", "setting": "[1]", "value": 0.011, "unit": "s⁻¹"}]}, {"smiles": "CO[C@@H]1C[C@](C)(O)Cc2cc3c(c(O)c21)C(=O)c1c(O)cc2c(c1C3=O)O[C@@H]1O[C@@]2(C)[C@H](O)[C@@H](N(C)C)[C@@H]1O", "note": "[MENOGARIL]", "values": [{"measurement": "RATE CONSTANT k2", "setting": "[1]", "value": 0.0025, "unit": "s⁻¹"}]}, {"smiles": "Cc1c(C)c2c(c(C)c1O)CCC(C)(CCCC(C)CCCC(C)CCCC(C)C)O2", "note": "(stereo not drawn) [alpha-tocopherol]", "values": [{"measurement": "reduction of size of ulceration", "setting": "DOX-induced injury", "value": "purported to reduce the size of ulceration in some animal models but not in all"}]}, {"smiles": "COc1cccc2c1C(=O)c1c(O)c3c(c(O)c1C2=O)CC(O)(C(C)=O)CC3", "note": "(stereo not shown) [compound 8, 7-deoxydaunorubicinone]", "values": [{"measurement": "solubility", "setting": "[2]", "value": "sparingly soluble"}]}, {"smiles": "COc1cccc2c1C(=O)c1c(O)c3c(c(O)c1C2=O)C[C@@](O)(C(C)=O)C[C@@H]3O[C@H]1C[C@H](N)[C@H](O)[C@H](C)O1", "note": "[daunorubicin, reference compound]", "values": [{"measurement": "RATE CONSTANT k2", "setting": "[1]", "value": 0.013, "unit": "s⁻¹"}, {"measurement": "reaction of daunorubicin", "setting": "[3]", "value": 50, "unit": "%"}]}, {"smiles": "C[S+](C)[O-]", "note": "[dimethyl sulfoxide]", "values": [{"measurement": "reduction of size of ulceration", "setting": "DOX-induced injury", "value": "purported to reduce the size of ulceration in some animal models but not in all"}, {"measurement": "severity of DOX-induced injury", "setting": "DOX-induced injury; swine model, Okano et al. 1983", "value": "appeared to ameliorate the severity of injury"}]}]}
